Assay results taken from ChEMBL document CHEMBL1201862, “PubChem BioAssay data set” (2004).
Active and inactive are the calls of the source.

Key:
[1] = target: T1, Mannose-6-phosphate isomerase (Homo sapiens, UniProt P34949); assay: human PMI inhibitors, high substrate, primary screen, biochemical, fluorescence intensity, high mannose 6-phosphate (AID 1220)
T1 sequence (P34949 whole entry): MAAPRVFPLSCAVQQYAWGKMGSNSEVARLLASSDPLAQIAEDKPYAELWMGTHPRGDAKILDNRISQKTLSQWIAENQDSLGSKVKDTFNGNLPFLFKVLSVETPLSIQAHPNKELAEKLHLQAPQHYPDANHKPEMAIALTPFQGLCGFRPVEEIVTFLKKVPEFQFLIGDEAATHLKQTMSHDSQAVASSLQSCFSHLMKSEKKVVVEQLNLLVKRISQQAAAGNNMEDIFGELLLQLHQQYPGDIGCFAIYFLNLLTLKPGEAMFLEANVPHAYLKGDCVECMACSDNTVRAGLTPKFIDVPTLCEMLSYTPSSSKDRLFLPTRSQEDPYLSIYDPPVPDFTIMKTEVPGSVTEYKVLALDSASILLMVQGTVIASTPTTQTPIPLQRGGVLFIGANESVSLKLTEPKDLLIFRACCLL

Nonstructural protein 1 = Nonstructural protein 1 (Influenza A virus, UniProt Q194T2); type: functional, Influenza A virus (A/California/07/2009(H1N1))
Sequence of Nonstructural protein 1 (Q194T2 whole entry): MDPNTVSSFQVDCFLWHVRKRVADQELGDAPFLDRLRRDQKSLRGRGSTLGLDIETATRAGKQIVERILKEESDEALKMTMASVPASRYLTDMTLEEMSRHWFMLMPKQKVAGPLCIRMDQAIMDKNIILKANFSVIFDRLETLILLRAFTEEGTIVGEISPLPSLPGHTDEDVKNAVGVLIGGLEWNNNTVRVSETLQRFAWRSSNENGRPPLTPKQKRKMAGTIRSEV

[2] = target: T2, Histone-lysine N-methyltransferase NSD2 (Homo sapiens, UniProt O96028); type: biochemical
T2 sequence (O96028 whole entry): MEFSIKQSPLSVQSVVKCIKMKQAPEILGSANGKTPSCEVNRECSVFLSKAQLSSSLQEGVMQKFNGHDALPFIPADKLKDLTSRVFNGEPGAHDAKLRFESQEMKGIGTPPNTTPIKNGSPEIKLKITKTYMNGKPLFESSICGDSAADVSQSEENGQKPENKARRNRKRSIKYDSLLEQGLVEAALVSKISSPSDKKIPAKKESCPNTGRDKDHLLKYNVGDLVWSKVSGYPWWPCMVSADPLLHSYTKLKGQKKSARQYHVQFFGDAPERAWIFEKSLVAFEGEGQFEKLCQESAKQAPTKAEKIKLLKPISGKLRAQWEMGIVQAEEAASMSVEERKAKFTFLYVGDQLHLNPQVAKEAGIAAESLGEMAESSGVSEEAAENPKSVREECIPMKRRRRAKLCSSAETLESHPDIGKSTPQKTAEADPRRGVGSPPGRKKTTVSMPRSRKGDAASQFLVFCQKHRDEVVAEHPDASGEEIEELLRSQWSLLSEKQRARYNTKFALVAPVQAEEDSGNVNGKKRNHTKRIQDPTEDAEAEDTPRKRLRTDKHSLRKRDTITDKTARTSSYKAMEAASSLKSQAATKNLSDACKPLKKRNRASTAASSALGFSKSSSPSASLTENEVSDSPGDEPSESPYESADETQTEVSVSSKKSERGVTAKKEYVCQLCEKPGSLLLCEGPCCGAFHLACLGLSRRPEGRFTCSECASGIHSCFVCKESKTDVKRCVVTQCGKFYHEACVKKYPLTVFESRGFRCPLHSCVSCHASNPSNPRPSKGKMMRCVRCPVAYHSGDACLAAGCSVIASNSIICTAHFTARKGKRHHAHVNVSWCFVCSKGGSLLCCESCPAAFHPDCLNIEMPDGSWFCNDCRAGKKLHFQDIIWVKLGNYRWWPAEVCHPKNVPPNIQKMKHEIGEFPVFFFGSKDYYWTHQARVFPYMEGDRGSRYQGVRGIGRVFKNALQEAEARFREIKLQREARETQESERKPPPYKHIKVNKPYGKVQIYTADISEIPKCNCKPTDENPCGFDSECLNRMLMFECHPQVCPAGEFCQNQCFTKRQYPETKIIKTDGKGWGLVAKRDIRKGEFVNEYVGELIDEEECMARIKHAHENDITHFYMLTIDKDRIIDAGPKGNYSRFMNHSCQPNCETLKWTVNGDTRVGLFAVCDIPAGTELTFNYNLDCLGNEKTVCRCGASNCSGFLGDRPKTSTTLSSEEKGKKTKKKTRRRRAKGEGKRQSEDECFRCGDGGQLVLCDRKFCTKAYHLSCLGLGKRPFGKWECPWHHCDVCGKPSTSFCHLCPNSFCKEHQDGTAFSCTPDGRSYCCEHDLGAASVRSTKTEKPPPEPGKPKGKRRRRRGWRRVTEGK

[3] = inhibitors of intracellular T. cruzi replication, confirmation, NIH3T3 host cells, beta-gal luminescence (AID 2044); type: functional, cell-based;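 further: intracellular parasites grown in NIH/3T3 mouse fibroblasts as host cells; luminescent beta-galactosidase reporter signal from transgenic T. cruzi replicating inside host cells; inhibitors lower the luminescence signal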
[4] = cytotoxicity toward NIH3T3 fibroblasts, dose response, counter-screen, cell-based, ATP luminescence, mouse fibroblasts (AID 2010); type: functional;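 further: cells exposed to compound for about 90 hours before reading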
[5] = target: T3, Microphthalmia-associated transcription factor (Homo sapiens, UniProt O75030); assay: TRPM1 promoter luciferase signal decrease, dose response, MITF inhibitor project, cell-based, SK-MEL-5, cherry-picked, set 3 (AID 493073); type: functional
T3 sequence (O75030 whole entry): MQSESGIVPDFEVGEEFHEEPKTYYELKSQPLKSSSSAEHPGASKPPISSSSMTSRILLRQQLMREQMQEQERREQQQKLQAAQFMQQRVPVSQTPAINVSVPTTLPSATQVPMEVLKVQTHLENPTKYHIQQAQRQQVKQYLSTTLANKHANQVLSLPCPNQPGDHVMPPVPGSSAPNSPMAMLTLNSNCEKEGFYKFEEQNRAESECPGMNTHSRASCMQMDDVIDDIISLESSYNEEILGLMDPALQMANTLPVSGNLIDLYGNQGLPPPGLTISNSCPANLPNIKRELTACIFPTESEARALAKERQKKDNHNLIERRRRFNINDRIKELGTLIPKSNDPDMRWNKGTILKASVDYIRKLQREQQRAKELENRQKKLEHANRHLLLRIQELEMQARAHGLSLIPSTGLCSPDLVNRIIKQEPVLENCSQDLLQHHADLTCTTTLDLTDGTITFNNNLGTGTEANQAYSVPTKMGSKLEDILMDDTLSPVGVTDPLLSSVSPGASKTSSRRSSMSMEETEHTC

INS1 = assay: beta cell apoptosis inhibitors, cytokine rescue, dose response, luminescence, retest (AID 449756); type: functional, cell-based; conditions: Rattus norvegicus;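 further: cell death triggered by IL-1 beta plus TNF-alpha plus IFN-gamma mixture; protective hits raise ATP signal compared with cytokine alone wells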
Estrogen receptor = target: T4, Estrogen receptor (Homo sapiens, UniProt P03372);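 further: potency for inhibiting coactivator peptide recruitment to the receptor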
T4 sequence (P03372 whole entry): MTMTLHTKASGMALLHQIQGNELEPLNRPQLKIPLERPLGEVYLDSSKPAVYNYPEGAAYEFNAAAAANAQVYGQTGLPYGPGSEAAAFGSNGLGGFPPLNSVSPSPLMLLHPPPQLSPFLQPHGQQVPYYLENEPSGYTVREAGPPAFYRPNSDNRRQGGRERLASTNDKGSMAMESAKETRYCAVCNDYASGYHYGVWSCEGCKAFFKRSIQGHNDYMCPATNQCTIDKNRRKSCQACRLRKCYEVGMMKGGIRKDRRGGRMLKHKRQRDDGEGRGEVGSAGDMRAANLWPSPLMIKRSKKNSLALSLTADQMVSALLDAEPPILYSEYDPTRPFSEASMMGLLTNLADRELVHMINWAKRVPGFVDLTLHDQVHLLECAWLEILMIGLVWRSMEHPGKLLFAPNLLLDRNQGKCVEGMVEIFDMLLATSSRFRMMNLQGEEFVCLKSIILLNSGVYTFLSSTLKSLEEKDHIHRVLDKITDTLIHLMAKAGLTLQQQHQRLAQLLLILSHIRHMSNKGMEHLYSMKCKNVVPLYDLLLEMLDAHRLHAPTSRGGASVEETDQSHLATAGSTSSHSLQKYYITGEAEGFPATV

[6] = target: T5, DNA repair and recombination protein RAD54-like (Homo sapiens, UniProt Q92698); assay: inhibitors of human RAD54 branch migration, confirmation, biochemical, fluorescence, cherry-picked samples, dose series (AID 651657); type: functional
T5 sequence (Q92698 whole entry): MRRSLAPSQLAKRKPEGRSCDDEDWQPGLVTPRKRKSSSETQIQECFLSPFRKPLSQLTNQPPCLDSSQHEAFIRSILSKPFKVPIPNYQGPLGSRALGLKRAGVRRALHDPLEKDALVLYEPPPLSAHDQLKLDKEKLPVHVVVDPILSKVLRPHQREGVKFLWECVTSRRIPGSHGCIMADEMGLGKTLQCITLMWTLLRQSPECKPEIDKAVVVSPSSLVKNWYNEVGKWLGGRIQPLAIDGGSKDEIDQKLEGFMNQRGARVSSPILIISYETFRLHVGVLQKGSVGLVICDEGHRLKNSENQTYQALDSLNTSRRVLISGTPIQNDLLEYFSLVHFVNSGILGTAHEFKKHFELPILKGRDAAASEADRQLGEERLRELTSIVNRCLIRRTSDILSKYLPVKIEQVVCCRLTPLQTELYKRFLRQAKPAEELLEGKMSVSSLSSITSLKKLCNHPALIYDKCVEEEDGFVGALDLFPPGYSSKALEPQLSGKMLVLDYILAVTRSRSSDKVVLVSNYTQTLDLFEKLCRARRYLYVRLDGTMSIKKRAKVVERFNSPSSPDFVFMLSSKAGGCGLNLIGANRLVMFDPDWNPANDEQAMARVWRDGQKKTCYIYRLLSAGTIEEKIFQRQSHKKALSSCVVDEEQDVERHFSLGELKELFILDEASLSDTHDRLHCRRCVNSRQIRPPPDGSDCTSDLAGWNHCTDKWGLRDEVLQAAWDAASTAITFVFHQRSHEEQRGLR

[7] = target: T6, DNA repair protein RAD52 homolog (Homo sapiens, UniProt P43351); type: functional, biochemical
T6 sequence (P43351 whole entry): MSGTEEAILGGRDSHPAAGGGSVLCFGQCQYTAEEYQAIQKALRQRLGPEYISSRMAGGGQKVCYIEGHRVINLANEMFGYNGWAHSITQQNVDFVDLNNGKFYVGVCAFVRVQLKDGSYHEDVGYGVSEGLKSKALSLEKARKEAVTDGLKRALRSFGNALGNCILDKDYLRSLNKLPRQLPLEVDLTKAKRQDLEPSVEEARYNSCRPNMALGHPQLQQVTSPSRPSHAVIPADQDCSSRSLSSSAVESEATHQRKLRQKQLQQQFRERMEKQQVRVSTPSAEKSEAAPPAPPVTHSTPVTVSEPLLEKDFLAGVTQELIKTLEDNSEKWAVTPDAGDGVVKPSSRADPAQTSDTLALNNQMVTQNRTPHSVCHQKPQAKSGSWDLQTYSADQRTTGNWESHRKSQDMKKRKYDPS

Paired box protein Pax-8 = Paired box protein Pax-8 (Homo sapiens, UniProt Q06710); assay: inhibitors of PAX8-driven TPO luciferase reporter, dose response, RMG-I cells, cherry-pick (AID 687027); type: functional, cell-based;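 further: luciferase reporter driven by Pax8 target thyroperoxidase promoter measured by SteadyGlo luminescence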
Sequence of Paired box protein Pax-8 (Q06710 whole entry): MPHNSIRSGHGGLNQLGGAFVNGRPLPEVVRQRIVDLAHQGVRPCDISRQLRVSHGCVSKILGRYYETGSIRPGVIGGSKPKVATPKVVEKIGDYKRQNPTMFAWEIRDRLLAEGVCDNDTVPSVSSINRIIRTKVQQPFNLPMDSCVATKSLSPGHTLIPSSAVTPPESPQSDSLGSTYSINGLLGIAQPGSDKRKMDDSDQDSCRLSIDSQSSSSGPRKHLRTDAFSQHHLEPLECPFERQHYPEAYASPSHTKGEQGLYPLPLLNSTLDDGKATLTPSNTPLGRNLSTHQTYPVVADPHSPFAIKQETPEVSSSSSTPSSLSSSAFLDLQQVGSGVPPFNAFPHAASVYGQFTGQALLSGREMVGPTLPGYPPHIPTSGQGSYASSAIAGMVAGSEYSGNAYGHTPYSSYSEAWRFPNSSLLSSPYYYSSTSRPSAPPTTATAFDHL

[8] = IGROV1 ovarian cancer cell cytotoxicity, dose response, PAX8 inhibitor project, plate reader, dry powder samples (AID 743043); type: functional, cell-based; conditions: IGROV-1
[9] = cytotoxicity in OVCAR8 ovarian cancer cells, dose response, PAX8 project, cell-based, plate reader, dry powder samples (AID 743197); type: functional; conditions: OVCAR-8
[10] = NIH:OVCAR-3 ovarian cancer cell cytotoxicity, dose response, PAX8 inhibitor project, plate reader, dry powder samples (AID 743044); type: functional, cell-based

## O=c1cc(O)c2sc(Nc3cccc(C(F)(F)F)c3)nc2[nH]1
[1]
  IC50: > 50 µM (not active)

## CCOc1ccc(NC2=C(OC)C(=O)c3ccccc3C2=O)cc1
Nonstructural protein 1
  IC50: 7.02 µM (active)
[2]
  AC50: 6.18 µM (active)

## CCN(CC)CCNS(=O)(=O)c1ccc2c3c(cccc13)C(=O)N2
[2]
  AC50: > 20 µM (inactive)

## Cn1cc(CN2CCCC(CNC(=O)c3ccc4c(c3)OCO4)C2)c2ccccc21 (configuration not stated)
[3]
  EC50: < 0.1 µM (active)
[4]
  EC50: > 60 µM (not active)
cells
  EC50: 0.064 µM (active)

## Cc1ccc(-c2c[n+](Cc3ccc(Cl)cc3)c3n2CCC3)cc1
[3]
  EC50: < 0.1 µM (active)
[4]
  EC50: > 30 µM (not active)
[5]
  AC50: 14.2 µM (active)
INS1
  AC50: 5.16 µM (active)
cells
  EC50: 0.027 µM (active)

## CCOCC(=O)Nc1cccc(C(=O)OCC)c1
Estrogen receptor
  IC50: > 50 µM (not active)

## O=C(Nc1ccc2nn(-c3ccccc3)nc2c1)c1ccc2c(c1)OCO2
Estrogen receptor
  IC50: 6.3 µM (active)

## COc1cccc2sc3cc(NCCCN4CCOCC4)ccc3c(=O)c12
[6]
  AC50: 10.6 µM (active)
[7]
  AC50: 5.68 µM (active)

## COc1ccc(-c2nn(-c3ccccc3)cc2C(=O)N/N=C/c2ccc([N+](=O)[O-])o2)cc1
[3]
  EC50: < 0.1 µM (active)
[4]
  EC50: > 60 µM (not active)
cells
  EC50: 0.038 µM (active)

## C[C@@H]1CCCCO[C@@H](CN(C)C(=O)Nc2ccc(F)cc2)[C@H](C)CN([C@H](C)CO)C(=O)c2cc(NS(=O)(=O)c3ccc(Cl)cc3)ccc2O1
Paired box protein Pax-8
  AC50: 6.23 µM (active)
[8]
  AC50: 53 µM (active)
[9]
  AC50: > 70 µM (inactive)

## C[C@@H]1CCCCO[C@@H](CN(C)Cc2ccc3c(c2)OCO3)[C@@H](C)CN([C@@H](C)CO)C(=O)c2cc(NC(=O)Nc3ccc(C(F)(F)F)cc3)ccc2O1
Paired box protein Pax-8
  AC50: 8.56 µM (active)
[10]
  AC50: 40.3 µM (active)
[8]
  AC50: 37.4 µM (active)
[9]
  AC50: 44 µM (active)

## O=C1C(=O)C(Cl)=C(Cl)C(Cl)=C1Cl
[2]
  AC50: 11.2 µM (active)
